This is an account of results in PubChem BioAssay AID179 (DTP/NCI, 2004).

This test relates to CEM cells HIV-1 protection, formazan growth assay. The test is described as follows: NCI AIDS Antiviral Assay. Conditions: for IC50: measured here: growth of uninfected CEM cells. Summed up:
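Human CEM cells, uninfected and HIV-1-infected, exposed to five drug concentrations; growth measured by soluble formazan assay and scored as percent protection from infection, with protecting compounds retested.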

The structures appear in SMILES notation. Active and inactive are the calls of the source.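 The calls were made as follows: active = compounds giving half or more protection of infected cells from virus-caused growth loss, again on retest; inactive = the rest.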 Where a SMILES comes first, the peptide text is derived from it. [ ]: non-standard residue; d: D form. The star is where a group is joined. NMeAc5c = CNC1(C(=O)O)CCCC1; Cbz = O=C(OCc1ccccc1)*; Boc = CC(C)(C)OC(=O)*; OBn = c1ccc(CO*)cc1; tBu = CC(C)(C)* Where only a bound is given, the exact number is not on record here.

`Clc1ccccc1C(n1ncc2ccccc21)n1ncc2ccccc21`: the result was inactive.

A word on the EC50: it is the concentration needed to bring the measured effect to its halfway point. Broadly, the IC50 is the concentration that gives 50% inhibition. The low end stands for higher potency, the high end for lower potency. Regarding `COc1cccc(C=C(C(C)=O)C(C)=O)c1`, the EC50 was above 120 µM and the IC50 was 58.9 µM.

`c1nc(SSc2ncnc3nc[nH]c23)c2[nH]cnc2n1`: the EC50 is above 20 µM and the IC50 came out at 0.457 µM.

As for `CCOC(=O)c1sc2c(c1OC(=O)c1ccco1)c(=O)n(-c1ccccc1)c(=S)n2-c1ccccc1`, the EC50 was above 200 µM and the IC50 is 8.32 µM.

Take `CN=c1ncc2nc(-c3ccccc3)c(-c3ccccc3)n(C)c-2n1`: the outcome was inactive.

As to `O=C(O)c1ccccc1C(=O)Nn1cnnc1`, the EC50 is above 200 µM and the IC50 was above 200 µM.

As to `COC(=O)c1ccccc1/C=C1\Cc2cc(C)cc(C)c2C1=O`, the outcome was inactive.

As to `CCOC(=O)C(C(C)=O)C(CC(=O)OC)NC(=O)OCc1ccccc1` (configuration not stated), the EC50 was above 257 µM and the IC50 was above 257 µM.

In the case of `N[C@@H]1C(CO)NC[C@@H]1CO` (some centres not stated), the EC50 was above 200 µM and the IC50 is above 200 µM.

Take `O=c1c2ccccc2n2n1CC(O)C2` (configuration not stated): the outcome was inactive.

Take `CCCN(CCCCC(NC(C)=O)C(=O)NCc1ccccc1)C(=O)N(C)N=O` (configuration not stated): the EC50 is above 89.1 µM and the half-inhibitory concentration (IC50) was above 89.1 µM.

`N#Cc1c(Cl)/c(=C/O)c(=O)n2c1nc1ccccc12`: the EC50 is above 200 µM and the IC50 was 110 µM.

As for `Cc1csc2nc(-c3cccs3)nn12`, the EC50 is above 200 µM and the half-maximal inhibitory concentration (IC50) is above 200 µM.

Regarding `C/C=C1\CNC1C(=O)O` (configuration not stated), the EC50 is above 200 µM and the IC50 is above 200 µM.

`Cc1cc2c(cc1C)[n+](=O)c(C(=O)CC(=O)C(=O)Nc1c(C(C)C)cccc1C(C)C)c(C)n2[O-]`: the EC50 was above 7.94 µM and the IC50 was above 7.94 µM.

With `N#Cc1c(N2CCCCC2)[nH]c(=O)n(-c2ccccc2)c1=S`, the EC50 was above 200 µM and the IC50 is above 200 µM.

As for `O=C(/C=C/c1ccccc1Cl)c1ccc(Cl)c(Cl)c1`, the EC50 is above 8.71 µM and the 50% inhibitory concentration (IC50) is above 8.71 µM.

Turning to `N#Cc1c(N)nc2c3c1NC(=O)C(C(N)=O)C3c1ccccc1O2` (configuration not stated), the EC50 was above 200 µM and the half-maximal inhibitory concentration (IC50) is above 200 µM.

`Nc1nnc2nc(CC(=O)/C=C/c3ccccc3)c(=O)[nH]n12`: the EC50 is above 170 µM and the IC50 is above 170 µM.

As to `O=[N+]([O-])c1ccc(N=C/C=C/Nc2ccc([N+](=O)[O-])cc2)cc1`, the EC50 is above 200 µM and the half-maximal inhibitory concentration (IC50) is 52.5 µM.

As for `Cc1cn([C@H]2C[C@@H]3[C@@H](COC(C)(C[Se]c4ccccc4)N3O)O2)c(=O)[nH]c1=O` (some centres not stated), the EC50 was 50.1 µM and the IC50 was 162 µM.

For the molecule `O=c1[nH]c2cc3[nH]c(=O)c(=O)[nH]c3cc2[nH]c1=O`, the EC50 is above 200 µM and the IC50 was above 200 µM.

Turning to `O=C(c1ccccc1)N1CCN(C(=S)NC2CCCCC2)C1=S`, the EC50 is above 200 µM and the concentration for half-maximal inhibition (IC50) is 12 µM.

On to `COC(=O)/C([O-])=C(\C(=O)OC)[n+]1cc(Br)cc2ccccc21`, for which the EC50 was above 200 µM and the IC50 amounted to 77.6 µM.

In the case of `CCOC(=O)C(CC1COc2ccccc2O1)C(=O)OCC` (configuration not stated), the result was inactive.

In the case of `CCOC(=O)c1nc(SC)n(C)c1C(=O)OCC`, the EC50 was above 200 µM and the IC50 is above 200 µM.

`CCCCCCCCCCCSSCCCCCCCCCCC`: the EC50 is above 200 µM and the half-maximal inhibitory concentration (IC50) is above 200 µM.

With `CC1=CC2=C(C(N)=O)C(=O)OC2(C)C(c2ccccc2)C1` (configuration not stated), the EC50 was above 200 µM and the IC50 was above 200 µM.

Turning to `O=C(CNc1ccccc1Cl)Nn1c(-c2ccccc2)nc2ccccc2c1=O`, the EC50 was above 200 µM and the IC50 is 30.2 µM.

Regarding `NC(=O)C(N)C(F)c1ccccc1` (configuration not stated), the EC50 was above 200 µM and the IC50 is above 200 µM.

As for `CCN=C(N)CSS(=O)(=O)O`, the EC50 is above 200 µM and the IC50 was above 200 µM.

Take `C=C(Nc1ccc([N+](=O)[O-])cc1[N+](=O)[O-])c1c/c(=N\NC(N)=S)c2ccccc2o1`: the EC50 is above 117 µM and the IC50 was above 117 µM.

Turning to `COc1cc(OC)c(C(=O)/C=C/c2ccc(OC)c(OC)c2)c(OC)c1`, the outcome was inactive.

Take `O=c1ccn(-c2ccccn2)c(=O)n1-c1ccccn1`: the outcome was inactive.

With `Cc1ccc(S(=O)(=O)N2CCCSCCN(S(=O)(=O)c3ccc(C)cc3)CCCSCC2)cc1`, the EC50 was above 34.7 µM and the IC50 was above 34.7 µM.

For `N#Cc1c(-c2ccco2)cc(-c2ccccc2)[nH]c1=O`, the EC50 is above 20 µM and the IC50 is above 20 µM.

Take `CC(C)=[CH][Sb]([Br])([CH]=C(C)C)([CH]=C(C)C)[CH]=C(C)C`: the EC50 was above 589 µM and the IC50 worked out at 3.02 µM.

With `COc1cc(C2c3cc4c(cc3OC(Nc3ccccc3)C2C)OCO4)cc(OC)c1OC` (configuration not stated), the EC50 is above 200 µM and the IC50 came to 0.275 µM.

Turning to `CC(C)(C)C(=O)OC1CCOP(=O)(OCC2OC(n3cc(F)c(=O)[nH]c3=O)CC2O)O1` (configuration not stated), the EC50 was above 200 µM and the IC50 stood at 2.69 µM.

With `O=C1CC(c2ccccc2)S(=O)(=O)c2ccccc2N1` (configuration not stated), the EC50 is above 200 µM and the IC50 is above 200 µM.

Turning to `COc1cc(C=Nc2cc(Cl)c(N=O)c(Cl)c2)ccc1N(CCCCl)CCCCl`, the EC50 was 5.25 µM and the IC50 was found to be 22.4 µM.

As for `CN1B(c2ccccc2)N(C)C(=O)N(C)C1=O`, the EC50 was above 200 µM and the IC50 was above 200 µM.

Turning to `CC(=O)Nc1ccc(NCC(=O)Nn2cnc3ccc(S(=O)(=O)Nc4ccc(NC(C)=O)cc4)cc3c2=O)cc1`, the EC50 was above 200 µM and the IC50 is 191 µM.

With `O=C1C(Cl)N(c2cccc([N+](=O)[O-])c2)C1c1c[nH]c2ccccc12` (configuration not stated), the EC50 is above 105 µM and the IC50 stood at 5.01 µM.

Consider `COC(=O)C(=O)C(C(=O)C(N)=O)c1nc2ccc(C(=O)c3ccccc3)cc2[nH]c1=O` (configuration not stated), for which the EC50 is above 85.1 µM and the IC50 is above 85.1 µM.

For `Cn1c(COC(=O)Nc2ccccc2)c(COC(=O)Nc2ccccc2)c2ccc3ccccc3c21`, the EC50 was above 200 µM and the IC50 came to 0.339 µM.

`CN(C)CCCN1C(=O)N(CCCN(C)C)c2c3cc(O)ccc3nc3c([N+](=O)[O-])ccc1c23`: the EC50 is above 200 µM and the IC50 was 0.977 µM.

Consider `CCOP(=O)(OCC)C(C1OC(n2ccc(=O)[nH]c2=O)C(O[Si](C)(C)C(C)(C)C)C1O[Si](C)(C)C(C)(C)C)N(C)O` (configuration not stated), for which the EC50 is above 200 µM and the IC50 was found to be 4.79 µM.

With `O/N=C/[C@H]1COC2(CCCCC2)O1`, the EC50 is above 200 µM and the IC50 is above 200 µM.

In the case of `COC(=O)c1cc(C(=CCCCCBr)c2cc(Cl)c(OC)c(C(=O)OC)c2)cc(Cl)c1OC`, the EC50 is 45.7 µM and the IC50 came out at 151 µM.

Consider `COc1ccc(/C=C\c2cc(OC)c(OC)c(OC)c2)cc1OCC(=O)O`, for which the result was inactive.

With `CC(OC(C)(C)C)C(NC(=O)C(CCCCNC(=O)OC(C)(C)C)NC(=O)C(Cc1c[nH]c2ccccc12)NC(=O)OCc1ccccc1)C(=O)NC(Cc1ccccc1)C(=O)N(C)C1(C(=O)NC(Cc2ccccc2)C(=O)OCc2ccccc2)CCCC1` (configuration not stated) (Cbz-WK(Boc)T(tBu)F[NMeAc5c]F-OBn; configuration not given here), the EC50 was above 50.1 µM and the 50% inhibitory concentration (IC50) was found to be 38.9 µM.

For `COc1cc(CNc2nc3cc(C(F)(F)F)ccc3nc2C(=O)O)cc(OC)c1OC`, the EC50 was above 200 µM and the IC50 came out at 97.7 µM.

For `OCC(O)C(O)C(O)C1SC(c2ccccc2)=NN1c1ccccc1` (configuration not stated), the outcome was inactive.

As for `Cc1ncc2c(c1O)COC2=O`, the EC50 was above 1510 µM and the IC50 was above 1510 µM.

Regarding `N=C1N(/N=C/c2ccccn2)C(=Nc2ccccc2)C(=S)N1c1ccccc1`, the EC50 is above 200 µM and the half-inhibitory concentration (IC50) was found to be 5.13 µM.

Regarding `O=[N+]([O-])/C(Cl)=C(\NCCN/C(C(Cl)=C(Cl)Cl)=C(/Cl)[N+](=O)[O-])C(Cl)=C(Cl)Cl`, the EC50 was above 200 µM and the IC50 amounted to 61.7 µM.

For `Cc1ccc(NC(=O)CSc2nnc(Cc3ccccc3)o2)c(C)c1`, the EC50 is above 141 µM and the IC50 was 135 µM.

With `CN(C(=O)C12C3C4C1C1C4(C(=O)C45C6C7C4C4C5C6C74C)C3C12C)C(C)(C)C` (configuration not stated), the result was inactive.

With `CCOC(=O)c1c(SC(=O)c2ccc(OC)cc2)n(-c2ccccc2)c(=S)n(-c2ccccc2)c1=O`, the EC50 is above 200 µM and the IC50 is 28.2 µM.

Take `CC(C)(C)OC(=O)N(CC1OC(n2cnc3c(N)ncnc32)C2OC(C)(C)OC12)OC(=O)C(C)(C)C` (configuration not stated): the EC50 was above 200 µM and the IC50 was above 200 µM.

`O=P1(Oc2ccccc2)OC[C@H]2S[C@H](c3ccccc3)C[C@H]2O1` (some centres not stated): the EC50 is above 200 µM and the half-maximal inhibitory concentration (IC50) was above 200 µM.

As for `Cc1ccc(-n2c(=S)[nH]c3ccc(Br)cc3c2=O)cc1`, the EC50 is above 269 µM and the half-inhibitory concentration (IC50) was 89.1 µM.

With `Cc1cn(C2CC(N=[N+]=[N-])C(COC(=O)[C@@]3(O)CC[C@H]4[C@@H]5CCC6=CC(=O)CC[C@]6(C)[C@H]5C(O)C[C@@]43C)O2)c(=O)[nH]c1=O` (some centres not stated), the EC50 was 26.9 µM and the IC50 was found to be 158 µM.

In the case of `c1csc(-c2cscc2-c2ccsc2)c1`, the EC50 was above 200 µM and the IC50 is 38.9 µM.

In the case of `Cc1nnc(N)nc1C/C=C/C(Sc1ccc(Cl)cc1)c1ccccc1` (configuration not stated), the EC50 was above 9.77 µM and the 50% inhibitory concentration (IC50) turned out to be 3.98 µM.

With `CC(=O)c1ccc2c(c1)CC1(C2)Cc2cc3c(cc2C1=O)CCC3` (configuration not stated), the EC50 is above 200 µM and the IC50 turned out to be 14.5 µM.

As for `CCOC(=O)C(=CNC(=S)N=Nc1c(O)[nH]c2ccccc12)C(=O)OCC`, the EC50 was above 200 µM and the IC50 came out at 70.8 µM.

Take `COc1cc2c(cc1OC)CCN=C2`: the result was inactive.

Regarding `c1ccc2c(c1)[nH]c1c2nc2ccccn21`, the EC50 was above 1020 µM, the result was inactive and the IC50 was above 1020 µM.

`CCOc1ccc(N=Nc2ccc(N)cc2N)cc1`: the EC50 is above 200 µM and the IC50 came to 107 µM.
